Source: US9757408B2 (Hayashibara Co., Ltd., priority 2010, dated 2017)
In brackets after ≈: the same amount, converted by molar mass. Marks after values point to notes of the source that are not given here.

Tests used:
[1] = tested on: tissue factor expression in HUVEC cells; assay: Expression of tissue factor in HUVEC cells, ELISA of cell lysate (Experiment 6-2); format: cell-based, human; details: for concentration which significantly inhibited the expression of tissue factor: LPS; for concentration which significantly inhibited the expression of tissue factor / Amount of expressed tissue factor: IL-1β, IFN-γ; for Amount of expressed tissue factor: HUVEC, LPS 10 μg/mL
Protocol: Thereafter, a solution of LPS, IL-1β, and IFN-γ were respectively prepared to give respective concentrations of 10 μg/mL, 2 ng/mL, and 500 IU/mL, added to the cells in an amount of 50 μL/well, and incubated at 37° C. for 5.5 hours in a 5% v/v CO2 incubator. After the culture, the cells were washed twice with PBS, followed by adding PBS to the resulting cells in a volume of 50 μL/well. The multi-plates were subjected to a freezing at −80° C. and thawing process thrice, followed by adding 50 mM Tris buffer (pH 7.4) containing 100 mM NaCl and 0.2% Triton X-100 to the microplates in an amount of 50 μL/well, culturing the cells at 4° C. overnight to prepare a cell lysate. The content of tissue factor in the cell lysate was determined by “AssayMax Human Tissue Factor ELISA Kit”, a product name of ELISA commercialized by Assay Pro, USA.

[2] = tested on: TNF-α production of HUVEC cells; assay: TNF-α production of HUVEC cells, LPS/IL-1β/IFN-γ (Experiment 6-1); format: cell-based, human; details: for TNF-α Concentration: HUVEC, LPS 10 μg/mL, IL-1β, IFN-γ; for IC50: Homo sapiens, LPS in the coexistence of IL-1β and IFN-γ, read-out: IC50 against production inhibition of TNF-α
From the text: The results are in Table 6 in parallel.

[3] = tested on: mouse with severe acute pancreatitis induced by choline-deficient ethionine-added feed; assay: Severe acute pancreatitis induced by choline-deficient ethionine-added feed, survival (Experiment 15); format: in vivo, CD1(ICR) mice
From the text: After seven days of a preliminary breeding, the mice were fasted for one day and allowed to freely take a choline-deficient ethionine-added feed, produced by Oriental Yeast Co., Ltd., Tokyo, Japan, for three days from the next day. Thereafter, the mice were fed on normal feed again and then fed on the choline-deficient ethionine-added feed. […] Eight mice in the remaining one group as a control were orally administered through a gastric tube with distilled water twice a day every morning and evening in a liquid volume of 0.2 mL/head/shot from the initiation of fasting. The survival number of mice in each group was macroscopically confirmed up to seven days from the initiation of taking the choline-deficient ethionine-added feed, and the survival rate (%) of mice in each group was determined. The survival rate (%) of mice was determined similarly as in Experiment 1.

[4] = tested on: VCAM-1 expression in HUVEC cells; assay: Expression of cell-adhesion factor VCAM-1 on HUVEC cells, fluorescent intensity (Experiment 6-3); format: cell-based, human; details: LPS 10 μg/mL, IL-1β, IFN-γ
Protocol: Thereafter, the supernatant in each well was removed by suction, and the cells were washed twice with PBS, followed by adding 4% paraformaldehyde to the cells and allowing them to stand at ambient temperature for one hour to fix them. After the fixation, the cells were washed thrice with PBS, followed by adding PBS containing 1% BSA and 0.05% NaN3 in an amount of 150 μL/well, and subjecting the cells to blocking at 4° C. overnight. […] Thereafter, the cells were washed four times with PBS, adding an HRPO-labeled streptavidin (“Streptavidin HRP Conjugate”, a product name of Invitrogen Corporation, CA, USA), which had been diluted with PBS containing 3% BSA by 1,000 times, in an amount of 100 μL/well and allowing the cells to stand at ambient temperature for one hour. Finally, the cells were washed four times with PBS, allowed to develop color for 10 min with “QuantaBlue™ Fluorogenic Peroxidase Substrate”, commercialized by Pierce Biotechnology, IL, USA, and determined the cells' fluorescent intensity at a wavelength of 325 to 420 nm. […] The results are in Table 6 in parallel.

[5] = tested on: TNF-α in serum of mice administered with LPS; assay: Serum TNF-α in LPS-administered mice, oral administration (Experiment 11); format: in vivo, BALB/c mice; details: LPS 18 mg/kg i.p., serum 90 min after LPS
Protocol: The seven mice in another one group were orally administered through a gastric tube with 3′-glucosyl-adenosine N1-oxide, which had been dissolved in PBS, at a dose of 200 mg/kg body weight in a liquid volume of 0.2 mL/head (Experiment group 4). The seven mice in the remaining one group were orally administered through a gastric tube with PBS in a liquid volume of 0.2 mL/head (Experiment group 1). All the mice were intraperitoneally administered with an LPS specimen derived from E. coli (055:B5), commercialized by Sigma-Aldrich Corporation, St. Louis, Mo. USA, which had been dissolved in PBS, at a dose of 18 mg/kg body weight (Experiment groups 1 to 4). For each group, the mice were collected blood from their tail veins at 90 min after administering LPS, followed by assaying the concentrations of TNF-α, IL-6, and IL-10 contained in serum by the same method as in […].

BALB/c mice = assay: Acute toxicity test, intraperitoneal (Experiment 20); details: mouse, in vivo, ip
Protocol: As a control, only PBS was intraperitoneally administered to 10 BALB/c mice (6-week-old, female, average weight of 20 g, commercialized by Charles River Laboratories Japan Inc., Tokyo, Japan) at a dose of 1 mL/head, followed by observing the course of the mice for 24 hours.

physchem = details: aqueous buffer
[6] = oral 124 mg/kg body weight/shot twice a day
[7] = oral 46 mg/kg body weight/shot twice a day
[8] = oral 139 mg/kg body weight/shot twice a day

For `Nc1ncnc2c1ncn2[C@@H]1O[C@H](CO)[C@@H](O)[C@H]1O` [AN, adenosine], the “concentration which significantly inhibited the expression of tissue factor” value ([1]; HUVEC cells) was “at least 5 μM”, the “Amount of expressed tissue factor” value ([1]; test substance 1 μM) was 27.1 and the “Amount of expressed tissue factor” value ([1]; test substance 2 μM) was 26.6. The “Amount of expressed tissue factor” value ([1]; test substance 5 μM) was 13.9**, the “Amount of expressed tissue factor” value ([1]; test substance 10 μM) was 4.5** and the “TNF-α Concentration” value ([2]; test substance 1 μM) was 53 pg/mL. For the same compound, the “TNF-α Concentration” value ([2]; test substance 2 μM) was 49.2 pg/mL, the “TNF-α Concentration” value ([2]; test substance 5 μM) was 40.3 pg/mL and the “TNF-α Concentration” value ([2]; test substance 10 μM) was 31.1** pg/mL. The IC50 ([2]; HUVEC cells) was 15.2 µM, the “Survival rate (%) of mice, 48 Hours” value [3, 6] was 100.0% and the “Survival rate (%) of mice, 70 Hours” value [3, 6] was 20.0%. For the same compound, the “Survival rate (%) of mice, 78 Hours” value [3, 6] was 50.0%, the “Survival rate (%) of mice, 94 Hours” value [3, 6] was 25.0% and the “Survival rate (%) of mice, 102 Hours” value [3, 6] was 12.5%. For the same compound, the “Survival rate (%) of mice, 144 Hours” value [3, 6] was 12.5%, the “Amount of expressed VCAM-1” value ([4]; test substance 1 μM) was 3,824 and the “Amount of expressed VCAM-1” value ([4]; test substance 2 μM) was 3,957. For the same compound, the “Amount of expressed VCAM-1” value ([4]; test substance 5 μM) was 3,609** and the “Amount of expressed VCAM-1” value ([4]; test substance 10 μM) was 2,823**.

In the case of `Nc1c2ncn([C@@H]3O[C@H](CO)[C@@H](O)[C@H]3O)c2nc[n+]1[O-]` [ANO, adenosine N1-oxide], the “Amount of TNF-α” value ([5]; oral 100 mg/kg) is reported as 1339 pg/mL, the “Amount of TNF-α” value ([5]; oral 200 mg/kg) is reported as 874* pg/mL and the “inhibitory strength on tissue factor expression, stronger than adenosine” value ([1]; HUVEC cells) is reported as “at least 10 times”. For the same compound, the “concentration which significantly inhibited the expression of tissue factor” value ([1]; HUVEC cells) was “at least 0.5 μM”, the “Amount of expressed tissue factor” value ([1]; test substance 0.2 μM) was 27.6 and the “Amount of expressed tissue factor” value ([1]; test substance 0.5 μM) was 13.5**. For the same compound, the “Amount of expressed tissue factor” value ([1]; test substance 1 μM) was 12.9**, the “Amount of expressed tissue factor” value ([1]; test substance 2 μM) was 9.4** and the “Amount of expressed tissue factor” value ([1]; test substance 5 μM) was 0**. For the same compound, the “Amount of expressed tissue factor” value ([1]; test substance 10 μM) was 0**, the “TNF-α production inhibitory action stronger than that of adenosine” value ([2]; HUVEC cells, comparison of IC50) was “about 16 times” and the “TNF-α Concentration” value ([2]; test substance 0.2 μM) was 51 pg/mL. The “TNF-α Concentration” value ([2]; test substance 0.5 μM) was 41.1 pg/mL, the “TNF-α Concentration” value ([2]; test substance 1 μM) was 25.1** pg/mL and the “TNF-α Concentration” value ([2]; test substance 2 μM) was 12.3** pg/mL. The “TNF-α Concentration” value ([2]; test substance 5 μM) was 1.8** pg/mL, the IC50 ([2]; HUVEC cells) was 0.97 µM and the LD50 (BALB/c mice) was ≥ 1,000 mg/kg body weight. For the same compound, the “change in appearance after administration” value (BALB/c mice) was “no change in appearance”, the solubility (physchem) was ~20 mg/mL (≈ 70.6 mM) and the “Survival rate (%) of mice, 48 Hours” value [3, 7] was 100.0%. For the same compound, the “Survival rate (%) of mice, 70 Hours” value [3, 7] was 100.0%, the “Survival rate (%) of mice, 78 Hours” value [3, 7] was 50.0% and the “Survival rate (%) of mice, 94 Hours” value [3, 7] was 25.0%. For the same compound, the “Survival rate (%) of mice, 102 Hours” value [3, 7] was 12.5%, the “Survival rate (%) of mice, 144 Hours” value [3, 7] was 12.5% and the “Survival rate (%) of mice, 48 Hours” value [3, 8] was 100.0%. The “Survival rate (%) of mice, 70 Hours” value [3, 8] was 87.5%, the “Survival rate (%) of mice, 78 Hours” value [3, 8] was 75.0% and the “Survival rate (%) of mice, 94 Hours” value [3, 8] was 75.0%. For the same compound, the “Survival rate (%) of mice, 102 Hours” value [3, 8] was 75.0%, the “Survival rate (%) of mice, 144 Hours” value [3, 8] was 75.0% and the “Amount of expressed VCAM-1” value ([4]; test substance 0.2 μM) was 4,123. For the same compound, the “Amount of expressed VCAM-1” value ([4]; test substance 0.5 μM) was 4,052, the “Amount of expressed VCAM-1” value ([4]; test substance 1 μM) was 3,920 and the “Amount of expressed VCAM-1” value ([4]; test substance 2 μM) was 3,967. For the same compound, the “Amount of expressed VCAM-1” value ([4]; test substance 5 μM) was 3,603* and the “Amount of expressed VCAM-1” value ([4]; test substance 10 μM) was 2,823**.

For `OC[C@H]1O[C@@H](n2cnc3c(O)ncnc32)[C@H](O)[C@@H]1O` [IN, inosine], the “Survival rate (%) of mice, 48 Hours” value [3, 6] was 100.0%, the “Survival rate (%) of mice, 70 Hours” value [3, 6] was 60.0% and the “Survival rate (%) of mice, 78 Hours” value [3, 6] was 62.5%. For the same compound, the “Survival rate (%) of mice, 94 Hours” value [3, 6] was 50.0%, the “Survival rate (%) of mice, 102 Hours” value [3, 6] was 25.0% and the “Survival rate (%) of mice, 144 Hours” value [3, 6] was 12.5%.
